The record followed here is ChEMBL document CHEMBL1149816, “Class II-selective histone deacetylase inhibitors. Part 2: alignment-independent GRIND 3-D QSAR, homology and docking studies” (Eur J Med Chem, 2008).

One test has as its target Histone deacetylase HD1B (Zea mays, UniProt Q9ZTP8). Kind of test: Inhibition of maize histone deacetylase 1B.
A short description of test [1]: Inhibition of maize histone deacetylase 1A. Details: species or system Zea mays.
For the next test, the system named is Zea mays. Kind of test: Selectivity for IC50 of maize histone deacetylase 1A over IC50 of maize histone deacetylase 1B.

Chain of Histone deacetylase HD1B (Q9ZTP8 whole entry): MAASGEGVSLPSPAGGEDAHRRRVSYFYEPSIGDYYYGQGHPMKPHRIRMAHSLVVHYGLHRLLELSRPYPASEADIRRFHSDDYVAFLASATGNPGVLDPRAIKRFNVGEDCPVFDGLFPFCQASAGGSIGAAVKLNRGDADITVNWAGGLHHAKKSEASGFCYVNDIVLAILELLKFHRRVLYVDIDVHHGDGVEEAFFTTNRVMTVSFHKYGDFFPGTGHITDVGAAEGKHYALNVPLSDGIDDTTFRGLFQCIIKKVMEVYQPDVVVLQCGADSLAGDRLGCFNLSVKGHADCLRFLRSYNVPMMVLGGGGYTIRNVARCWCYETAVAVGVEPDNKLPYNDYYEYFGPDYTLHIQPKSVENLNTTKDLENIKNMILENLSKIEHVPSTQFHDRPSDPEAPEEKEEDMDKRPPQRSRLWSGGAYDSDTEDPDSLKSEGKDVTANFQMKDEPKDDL

On to `C/C(=C\c1cc(/C=C/C(=O)NO)n(C)c1)C(=O)c1ccccc1`, for which the values for the IC50 (on Histone deacetylase HD1B (read-out: IC50); in test [1]) were 570 nM and 780 nM, respectively.

Turning to `Cn1cc(/C=C/C(=O)c2c(F)cccc2F)cc1/C=C/C(=O)NO`, the IC50 at Histone deacetylase HD1B (read-out: IC50) was 807 nM; at Histone deacetylase HD1B (read-out: pIC50 (converted)) it was 17000 nM; in test [1] it was 167 nM. This molecule showed a negative-log IC50 (pIC50) in test [1] of 5.553. For the same molecule, the Ratio IC50 with Zea mays amounted to 4.8.

In the case of `Cn1cc(/C=C/C(=O)c2cccs2)cc1/C=C/C(=O)NO`, the results for the IC50 (on Histone deacetylase HD1B (read-out: IC50); in test [1]) were 25800 nM and 16300 nM, respectively. The Ratio IC50 with Zea mays turned out to be 1.6.

Regarding `Cn1cc(/C=C/C(=O)c2ccccc2F)cc1/C=C/C(=O)NO`, the IC50 was 3400 nM at Histone deacetylase HD1B (read-out: IC50) and 100 nM in test [1]. In addition, in the test on Zea mays, the Ratio IC50 was 34.

As for `Cn1cc(/C=C/C(=O)c2ccccc2)cc1/C=C/C(=O)NO`, the IC50 on Histone deacetylase HD1B (read-out: IC50) was determined as 260 nM; in test [1] it was 190 nM.

As to `Cn1cc(/C=C/C(=O)c2ccc(Cl)cc2)cc1/C=C/C(=O)NO`, the IC50 at Histone deacetylase HD1B (read-out: IC50) was 29400 nM; in test [1], 18600 nM.

On to `Cn1cc(/C=C/C(=O)c2ccsc2)cc1/C=C/C(=O)NO`, for which the IC50 on Histone deacetylase HD1B (read-out: IC50) came out at 22600 nM; in test [1], 13800 nM. Further, in the test with Zea mays, the Ratio IC50 worked out at 1.6.

With `Cn1cc(/C=C/C(=O)c2ccc(Br)cc2)cc1/C=C/C(=O)NO`, the IC50 on Histone deacetylase HD1B (read-out: IC50) is 24300 nM; in test [1], 20300 nM. Besides, in the test on Zea mays, the Ratio IC50 was 1.2.

With `Cn1cc(/C=C/C(=O)c2ccc(F)cc2)cc1/C=C/C(=O)NO`, the values for the IC50 (at Histone deacetylase HD1B (read-out: IC50); in test [1]) were 24900 nM and 15700 nM, respectively. In the test on Zea mays, the Ratio IC50 came to 1.6.

Consider `Cn1cc(/C=C/C(=O)c2cccc(OC(F)(F)F)c2)cc1/C=C/C(=O)NO`, for which the IC50 on Histone deacetylase HD1B (read-out: IC50) was 298000 nM; in test [1], 90000 nM. In test [1], this molecule came in with a pIC50 of 4.046. In addition, the Ratio IC50 in the test on Zea mays was found to be 3.3.

Take `Cn1cc(/C=C2\CCCc3ccccc3C2=O)cc1/C=C/C(=O)NO`: the IC50 on Histone deacetylase HD1B (read-out: IC50) was 510 nM; on Histone deacetylase HD1B (read-out: pIC50 (converted)), 1400 nM; in test [1], 196 nM. The molecule further returned a negative-log IC50 (pIC50) in test [1] of 6.301. Further, the Ratio IC50 in the test with Zea mays worked out at 2.6.

As for `CC(/C=C/C(=O)NO)=C\[C@@H](C)C(=O)c1ccc(N(C)C)cc1` [TRICHOSTATIN], in test [1], the IC50 worked out at 0.8 nM.

Regarding `Cn1cc(/C=C/C(=O)c2cccc(F)c2)cc1/C=C/C(=O)NO`, the IC50 at Histone deacetylase HD1B (read-out: IC50) stood at 38800 nM; in test [1], 220 nM. The Ratio IC50 in the test with Zea mays stood at 176.

Regarding `Cn1cc(/C=C/C(=O)c2cccc(Cl)c2)cc1/C=C/C(=O)NO`, the IC50 on Histone deacetylase HD1B (read-out: IC50) stood at 31400 nM; in test [1], 440 nM. In the test with Zea mays, the Ratio IC50 worked out at 71.4.

With `COc1ccc(C(=O)/C=C/c2cc(/C=C/C(=O)NO)n(C)c2)cc1`, the IC50 was 800 nM on Histone deacetylase HD1B (read-out: IC50) and 790 nM in test [1].

For `Cn1cc(/C=C/C(=O)c2ccc3c(c2)OCCO3)cc1/C=C/C(=O)NO`, on Histone deacetylase HD1B (read-out: IC50), the IC50 was 621 nM. In addition, in test [1], the IC50 came out at 185 nM and the pIC50 turned out to be 6.708. Further, the Ratio IC50 in the test with Zea mays came to 3.4.

Regarding `Cn1cc(/C=C/C(=O)c2cccc(C(F)(F)F)c2)cc1/C=C/C(=O)NO`, the IC50 at Histone deacetylase HD1B (read-out: IC50) amounted to 159000 nM. In test [1], this molecule showed an IC50 of 9300 nM and a pIC50 of 5.032. In addition, the Ratio IC50 in the test on Zea mays was determined as 17.1.

On to `Cn1cc(/C=C/C(=O)c2ccc3c(c2)CCO3)cc1/C=C/C(=O)NO`, for which the IC50 on Histone deacetylase HD1B (read-out: IC50) came out at 6400 nM; in test [1] it was 2100 nM. Moreover, in the test on Zea mays, the Ratio IC50 was determined as 3.

With `Cn1cc(/C=C/C(=O)c2cccc(Br)c2)cc1/C=C/C(=O)NO`, the IC50 on Histone deacetylase HD1B (read-out: IC50) was 480 nM; in test [1], 1600 nM.

Take `Cn1cc(/C=C/C(=O)c2cccc(Cl)c2Cl)cc1/C=C/C(=O)NO`: the IC50 at Histone deacetylase HD1B (read-out: IC50) came out at 17200 nM. In test [1], this molecule registered an IC50 of 6800 nM and a negative logarithm of the IC50 (pIC50) of 6.243. The Ratio IC50 with Zea mays came to 2.5.

Regarding `Cn1cc(/C=C2\CCc3ccccc3C2=O)cc1/C=C/C(=O)NO`, the values for the IC50 (at Histone deacetylase HD1B (read-out: IC50); at Histone deacetylase HD1B (read-out: pIC50 (converted)); in test [1]) were 59000 nM, 807 nM and 3400 nM, respectively. In addition, the negative-log IC50 (pIC50) in test [1] turned out to be 6.777. Moreover, in the test on Zea mays, the Ratio IC50 turned out to be 17.3.

Regarding `Cc1cccc(C(=O)/C=C/c2cc(/C=C/C(=O)NO)n(C)c2)c1`, the IC50 on Histone deacetylase HD1B (read-out: IC50) was found to be 2500 nM; in test [1] it was 170 nM. Further, the Ratio IC50 with Zea mays is 14.7.

`Cn1cc(/C=C/C(=O)c2ccccc2Cl)cc1/C=C/C(=O)NO`: the values for the IC50 (at Histone deacetylase HD1B (read-out: IC50); in test [1]) were 1600 nM and 50 nM, respectively. In addition, the Ratio IC50 in the test with Zea mays worked out at 32.

Turning to `Cn1cc(/C=C/C(=O)c2ccco2)cc1/C=C/C(=O)NO`, the IC50 was found to be 19700 nM at Histone deacetylase HD1B (read-out: IC50) and 1200 nM in test [1]. Further, the Ratio IC50 in the test on Zea mays came to 16.4.

Turning to `Cc1ccccc1C(=O)/C=C/c1cc(/C=C/C(=O)NO)n(C)c1`, the IC50 on Histone deacetylase HD1B (read-out: IC50) is 390 nM; in test [1], 60 nM. For the same molecule, in the test with Zea mays, the Ratio IC50 came to 6.5.

In the case of `Cn1cc(/C=C/C(=O)c2ccc(-c3ccccc3)cc2)cc1/C=C/C(=O)NO`, the results for the IC50 (at Histone deacetylase HD1B (read-out: IC50); in test [1]) were 31800 nM and 2200 nM, respectively. The Ratio IC50 in the test on Zea mays was found to be 14.4.

Regarding `CC/C(=C\c1cc(/C=C/C(=O)NO)n(C)c1)C(=O)c1ccccc1`, the IC50 on Histone deacetylase HD1B (read-out: IC50) was 4500 nM; in test [1] it was 220 nM. Further, in the test with Zea mays, the Ratio IC50 came to 20.4.

Regarding `Cn1cc(/C=C/C(=O)c2ccc(Cl)c(Cl)c2)cc1/C=C/C(=O)NO`, the IC50 on Histone deacetylase HD1B (read-out: IC50) worked out at 21300 nM. In test [1], this molecule registered an IC50 of 5900 nM and a pIC50 of 5.229. Also, in the test on Zea mays, the Ratio IC50 was found to be 3.6.

Regarding `Cn1cc(/C=C/C(=O)c2ccc(Cl)cc2Cl)cc1/C=C/C(=O)NO`, the IC50 on Histone deacetylase HD1B (read-out: IC50) was determined as 17000 nM. In addition, in test [1], the IC50 stood at 2800 nM and the negative-log IC50 (pIC50) was determined as 5.523. The Ratio IC50 in the test on Zea mays was 6.1.

In the case of `Cc1ccc(C(=O)/C=C/c2cc(/C=C/C(=O)NO)n(C)c2)cc1`, the IC50 came out at 4800 nM on Histone deacetylase HD1B (read-out: IC50) and 500 nM in test [1]. Besides, the Ratio IC50 in the test on Zea mays is 9.6.

With `Cn1cc(/C=C/C(=O)c2ccc(F)c(Cl)c2)cc1/C=C/C(=O)NO`, the IC50 at Histone deacetylase HD1B (read-out: IC50) is 1400 nM; on Histone deacetylase HD1B (read-out: pIC50 (converted)), 621 nM; in test [1], 500 nM. The pIC50 in test [1] is recorded as 6.733. Moreover, the Ratio IC50 in the test on Zea mays is 2.8.

Turning to `Cn1cc(/C=C/C(=O)c2cccc3ccccc23)cc1/C=C/C(=O)NO`, the figures for the IC50 (on Histone deacetylase HD1B (read-out: IC50); in test [1]) were 330 nM and 10 nM, respectively. Besides, in the test with Zea mays, the Ratio IC50 was found to be 33.

For the molecule `Cn1cc(/C=C/C(=O)c2cc(F)ccc2F)cc1/C=C/C(=O)NO`, the IC50 was 16600 nM on Histone deacetylase HD1B (read-out: IC50), 800 nM at Histone deacetylase HD1B (read-out: pIC50 (converted)) and 800 nM in test [1]. This molecule returned a pIC50 in test [1] of 6.097. In the test on Zea mays, the Ratio IC50 is 20.8.

For the molecule `COc1ccccc1C(=O)/C=C/c1cc(/C=C/C(=O)NO)n(C)c1`, the IC50 was 170 nM at Histone deacetylase HD1B (read-out: IC50) and 160 nM in test [1].

Take `Cn1cc(/C=C/C(=O)c2cc(F)cc(F)c2)cc1/C=C/C(=O)NO`: the IC50 on Histone deacetylase HD1B (read-out: IC50) came out at 23500 nM. Besides, in test [1], the negative logarithm of the IC50 (pIC50) came out at 5.678. In the test with Zea mays, the Ratio IC50 was found to be 11.2.

`COc1cccc(C(=O)/C=C/c2cc(/C=C/C(=O)NO)n(C)c2)c1`: the IC50 at Histone deacetylase HD1B (read-out: IC50) was found to be 600 nM; in test [1], 390 nM. Also, the Ratio IC50 in the test with Zea mays was determined as 1.5.

As for `Cn1cc(/C=C/C(=O)c2ccc3ccccc3c2)cc1/C=C/C(=O)NO`, the results for the IC50 (on Histone deacetylase HD1B (read-out: IC50); in test [1]) were 1800 nM and 40 nM, respectively. The Ratio IC50 in the test on Zea mays was 45.

On to `Cn1cc(/C=C/C(=O)c2cc3ccccc3o2)cc1/C=C/C(=O)NO`, for which the values for the IC50 (at Histone deacetylase HD1B (read-out: IC50); on Histone deacetylase HD1B (read-out: pIC50 (converted)); in test [1]) were 12000 nM, 59000 nM and 3000 nM, respectively. In addition, the pIC50 in test [1] is 5.469. Also, the Ratio IC50 in the test with Zea mays came to 4.

Consider `Cn1cc(/C=C/C(=O)c2ccc(F)c(F)c2)cc1/C=C/C(=O)NO`, for which the IC50 at Histone deacetylase HD1B (read-out: IC50) was 13500 nM. In test [1], this molecule displayed an IC50 of 2200 nM and a negative-log IC50 (pIC50) of 5.658. Moreover, the Ratio IC50 in the test with Zea mays is 6.1.

On to `Cn1cc(/C=C/C(=O)c2ccccc2Br)cc1/C=C/C(=O)NO`, for which the figures for the IC50 (at Histone deacetylase HD1B (read-out: IC50); in test [1]) were 180 nM and 210 nM, respectively.
